In brackets after ≈: the same amount, converted by molar mass. Like-named read-outs stand apart in the source and are kept apart here.
Experiments:
[1] = system: Klebsiella pneumoniae; assay: MIC/MBC of nanoemulsions against gram-negative isolates (CLSI, alamar blue); format: cell-based; settings: Klebsiella pneumoniae (n = 5)
[2] = system: Escherichia coli; assay: as above; format: cell-based; settings: Escherichia coli (n = 5)
[3] = system: Proteus mirabilis; assay: as above; format: cell-based; settings: Proteus mirabilis (n = 5)
[4] = system: Acinetobacter baumannii; assay: as above; format: cell-based; settings: Acinetobacter baumannii (n = 5)
[5] = system: Pseudomonas aeruginosa; assay: as above; format: cell-based; settings: Pseudomonas aeruginosa (n = 5)
[6] = system: Burkholderia cepacia; assay: as above; format: cell-based; settings: Burkholderia cepacia (n = 5)
[7] = system: Stenotrophomonas maltophilia; assay: as above; format: cell-based; settings: Stenotrophomonas maltophilia (n = 5)
[8] = system: Pseudomonas aeruginosa; assay: MIC/MBC against CF isolates (CLSI, alamar blue); settings: Pseudomonas aeruginosa
[9] = system: Burkholderia cenocepacia; assay: MIC/MBC against CF isolates (CLSI, alamar blue); settings: Burkholderia cenocepacia
[10] = system: Stenotrophomonas maltophilia; assay: MIC/MBC against CF isolates (CLSI, alamar blue); settings: Stenotrophomonas maltophilia
[11] = system: Acinetobacter baumannii; assay: MIC/MBC against clinical isolates (CLSI, alamar blue); settings: Acinetobacter baumannii
[12] = nanoemulsions in the presence of 5 mM EDTA
[13] = nanoemulsions in the presence of 5 mM EDTA, in µg/mL
[14] = CF Stenotrophomonas isolate NB41
[15] = CF Stenotrophomonas isolate NB42
[16] = CF Stenotrophomonas isolate NB43
[17] = CF Stenotrophomonas isolate NB44
[18] = CF Stenotrophomonas isolate NB45
[19] = CF Stenotrophomonas isolate Steno 1
[20] = CF Stenotrophomonas isolate Steno 2
[21] = CF Stenotrophomonas isolate Steno 3
[22] = CF Stenotrophomonas isolate Steno 4
[23] = CF Stenotrophomonas isolate Steno 6
[24] = CF Stenotrophomonas isolate Steno 8

CC(C)(O/N=C(\C(=O)N[C@@H]1C(=O)N2C(C(=O)[O-])=C(C[n+]3ccccc3)CS[C@H]12)c1csc(N)n1)C(=O)O [Ceftazidime]
% resistant [1]: 20.0%
% susceptible [1]: 80.0%
MIC50 [1, 12]: ≤ 1 µg/mL
% resistant [2]: 20.0%
% susceptible [2]: 80.0%
MIC50 [2, 12]: ≤ 1 µg/mL
% resistant [3]: 0.0%
% susceptible [3]: 100.0%
MIC50 [3, 12]: ≤ 1 µg/mL
MIC Range [3, 13]: <=1
% resistant [4]: 20.0%
% susceptible [4]: 80.0%
MIC50 [4, 12]: 4 µg/mL
% resistant [5]: 0.0%
% susceptible [5]: 100.0%
MIC50 [5, 12]: 2 µg/mL
MIC Range [5, 13]: 2-4
% resistant [6]: 0.0%
% susceptible [6]: 100.0%
MIC50 [6, 12]: 2 µg/mL
MIC Range [6, 13]: 2-4
% resistant [7]: 40.0/40.0%
% susceptible [7]: 40.0/40.0%
MIC50 [7, 12]: 16 µg/mL
MBC ([8]; CF Pseudomonas isolate NB12): 512 µg/mL (≈ 937 µM)
MIC ([8]; CF Pseudomonas isolate NB12): 256 µg/mL (≈ 468 µM)
MBC ([8]; CF Pseudomonas isolate NB13): 512 µg/mL (≈ 937 µM)
MIC ([8]; CF Pseudomonas isolate NB13): 512 µg/mL (≈ 937 µM)
MBC ([8]; CF Pseudomonas isolate NB14): > 1020 µg/mL
MIC ([8]; CF Pseudomonas isolate NB14): 1020 µg/mL (≈ 1870 µM)
MBC ([8]; CF Pseudomonas isolate NB15): 512 µg/mL (≈ 937 µM)
MIC ([8]; CF Pseudomonas isolate NB15): 256 µg/mL (≈ 468 µM)
MBC ([8]; CF Pseudomonas isolate NB16): > 1020 µg/mL
MIC ([8]; CF Pseudomonas isolate NB16): 256 µg/mL (≈ 468 µM)
MBC ([8]; CF Pseudomonas isolate NB19): 1020 µg/mL (≈ 1870 µM)
MIC ([8]; CF Pseudomonas isolate NB19): 512 µg/mL (≈ 937 µM)
MBC ([8]; CF Pseudomonas isolate NB20): 512 µg/mL (≈ 937 µM)
MIC ([8]; CF Pseudomonas isolate NB20): 256 µg/mL (≈ 468 µM)
MBC ([9]; CF Burkholderia isolate NB21): > 32 µg/mL
MIC ([9]; CF Burkholderia isolate NB21): 8 µg/mL (≈ 14.6 µM)
MBC ([9]; CF Burkholderia isolate NB22): > 32 µg/mL
MIC ([9]; CF Burkholderia isolate NB22): 8 µg/mL (≈ 14.6 µM)
MBC ([9]; CF Burkholderia isolate NB23): > 32 µg/mL
MIC ([9]; CF Burkholderia isolate NB23): > 32 µg/mL
MBC ([9]; CF Burkholderia isolate NB24): 32 µg/mL (≈ 58.5 µM)
MIC ([9]; CF Burkholderia isolate NB24): 4 µg/mL (≈ 7.32 µM)
MBC ([9]; CF Burkholderia isolate NB25): 32 µg/mL (≈ 58.5 µM)
MIC ([9]; CF Burkholderia isolate NB25): 16 µg/mL (≈ 29.3 µM)
MBC ([9]; CF Burkholderia isolate NB26): 32 µg/mL (≈ 58.5 µM)
MIC ([9]; CF Burkholderia isolate NB26): 16 µg/mL (≈ 29.3 µM)
MBC ([9]; CF Burkholderia isolate NB27): 16 µg/mL (≈ 29.3 µM)
MIC ([9]; CF Burkholderia isolate NB27): 8 µg/mL (≈ 14.6 µM)
MBC ([9]; CF Burkholderia isolate NB28b): 16 µg/mL (≈ 29.3 µM)
MIC ([9]; CF Burkholderia isolate NB28b): 16 µg/mL (≈ 29.3 µM)
MBC ([9]; CF Burkholderia isolate NB29): > 32 µg/mL
MIC ([9]; CF Burkholderia isolate NB29): 4 µg/mL (≈ 7.32 µM)
MBC ([9]; CF Burkholderia isolate NB30): 2 µg/mL (≈ 3.66 µM)
MIC ([9]; CF Burkholderia isolate NB30): 2 µg/mL (≈ 3.66 µM)
MIC50 [10]: > 32 µg/mL
MIC90 [10]: > 32 µg/mL
MBC [10, 14]: > 32 µg/mL
MIC [10, 14]: > 32 µg/mL
MBC [10, 15]: > 32 µg/mL
MIC [10, 15]: 8 µg/mL (≈ 14.6 µM)
MBC [10, 16]: > 32 µg/mL
MIC [10, 16]: > 32 µg/mL
MBC [10, 17]: > 32 µg/mL
MIC [10, 17]: > 32 µg/mL
MBC [10, 18]: > 32 µg/mL
MIC [10, 18]: > 32 µg/mL
MBC [10, 19]: > 32 µg/mL
MIC [10, 19]: > 32 µg/mL
MBC [10, 20]: > 32 µg/mL
MIC [10, 20]: > 32 µg/mL
MBC [10, 21]: > 32 µg/mL
MIC [10, 21]: > 32 µg/mL
MBC [10, 22]: 16 µg/mL (≈ 29.3 µM)
MIC [10, 22]: 2 µg/mL (≈ 3.66 µM)
MBC [10, 23]: > 32 µg/mL
MIC [10, 23]: 32 µg/mL (≈ 58.5 µM)
MBC [10, 24]: > 32 µg/mL
MIC [10, 24]: 16 µg/mL (≈ 29.3 µM)
MBC ([10]; read-out: MBC 50, 11 CF Stenotrophomonas isolates): > 32 µg/mL
MIC50 [11]: > 32 µg/mL
MIC90 [11]: > 32 µg/mL
MBC ([11]; Acinetobacter isolate NB31): > 32 µg/mL
MIC ([11]; Acinetobacter isolate NB31): > 32 µg/mL
MBC ([11]; Acinetobacter isolate NB32): > 32 µg/mL
MIC ([11]; Acinetobacter isolate NB32): > 32 µg/mL
MBC ([11]; Acinetobacter isolate NB33): > 32 µg/mL
MIC ([11]; Acinetobacter isolate NB33): > 32 µg/mL
MBC ([11]; Acinetobacter isolate NB34): 32 µg/mL (≈ 58.5 µM)
MIC ([11]; Acinetobacter isolate NB34): 32 µg/mL (≈ 58.5 µM)
MBC ([11]; Acinetobacter isolate NB35): > 32 µg/mL
MIC ([11]; Acinetobacter isolate NB35): > 32 µg/mL
MBC ([11]; Acinetobacter isolate NB36): 4 µg/mL (≈ 7.32 µM)
MIC ([11]; Acinetobacter isolate NB36): 2 µg/mL (≈ 3.66 µM)
MBC ([11]; Acinetobacter isolate NB37): 32 µg/mL (≈ 58.5 µM)
MIC ([11]; Acinetobacter isolate NB37): 32 µg/mL (≈ 58.5 µM)
MBC ([11]; Acinetobacter isolate NB38): > 32 µg/mL
MIC ([11]; Acinetobacter isolate NB38): > 32 µg/mL
MBC ([11]; Acinetobacter isolate NB39): > 32 µg/mL
MIC ([11]; Acinetobacter isolate NB39): 32 µg/mL (≈ 58.5 µM)
MBC ([11]; Acinetobacter isolate NB40): > 32 µg/mL
MIC ([11]; Acinetobacter isolate NB40): > 32 µg/mL
MBC ([11]; read-out: MBC 50, 10 Acinetobacter isolates): > 32 µg/mL

From patent publication US20100092526A1, “NANOEMULSION THERAPEUTIC COMPOSITIONS AND METHODS OF USING THE SAME” (NanoBio Corporation, priority 2008, published 2010)
